# Test results from US20230174521A1, “NOVEL DIACYLGLYCERIDE O-ACYLTRANSFERASE 2 INHIBITORS” (Merck Sharp & Dohme LLC, priority 2020, published 2023).
# Target: T1, human DGAT2 (hDGAT2) (Homo sapiens, UniProt Q96PD7)
# T1 construct: made in house; host or cells: Sf-9 insect cells (baculovirus infection); membrane fraction
# T1 sequence (Q96PD7 1-388): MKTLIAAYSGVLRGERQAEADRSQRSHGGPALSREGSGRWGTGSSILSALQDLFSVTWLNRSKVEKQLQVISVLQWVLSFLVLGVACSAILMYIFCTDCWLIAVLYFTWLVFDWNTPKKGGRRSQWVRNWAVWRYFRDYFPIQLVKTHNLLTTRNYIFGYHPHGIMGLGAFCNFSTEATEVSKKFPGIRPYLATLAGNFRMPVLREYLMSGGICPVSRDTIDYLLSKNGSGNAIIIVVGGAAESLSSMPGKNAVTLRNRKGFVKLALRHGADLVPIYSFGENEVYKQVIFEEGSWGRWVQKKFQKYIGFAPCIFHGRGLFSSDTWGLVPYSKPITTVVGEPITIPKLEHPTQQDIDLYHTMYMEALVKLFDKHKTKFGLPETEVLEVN
# Assay: DGAT2 enzymatic activity assay (LC/MS/MS detection of 13C18-triolein, Sf-9 membrane prep)
# Format: biochemical
# Settings: hDGAT2 Sf-9 membrane, 25 μM diolein, 5 μM 13C oleoyl-CoA, rt
# Experimental: Sf-9 insect cells were maintained in Grace's insect cell culture medium with 10% heated-inactivated fetal bovine serum, 1% Pluronic F-68 and 0.14 μg/ml Kanamycine sulfate at 27° C. in a shaker incubator. After infection with untagged baculovirus expressing human DGAT2 (hDGAT2) at multiplicity of infection (MOI) 3 for 48 hours, cells were harvested. Cell pellets were suspended in buffer containing 10 mM Tris-HCl pH 7.5, 1 mM EDTA, 250 mM sucrose and Complete Protease Inhibitor Cocktail (Sigma Aldrich), and sonicated on ice. Cell debris were removed by centrifugation at 2000×g for 15 minutes. Membrane fractions were isolated by ultracentrifugation (100,000×g), resuspended in the same buffer, and frozen (−80° C.) for later use. The protein concentration was determined with the Pierce™ BCA Protein Assay Kit (Thermo Fisher Scientific). Expression of protein levels was analyzed by immunoblotting with rabbit anti-DGAT2 antibody (Abcam, ab102831) and donkey anti-rabbit IgG H&L Alexa Fluor® 647 (Abcam, ab150075) followed by detection using Typhoon FLA9000 (GE Healthcare).
# LC/MS/MS analyses were performed using Thermal Fisher's LX4-TSQ Vantage system. This system consists of an Agilent binary high-performance liquid chromatography (HPLC) pumps and a TSQ Vantage triple quadrupole MS/MS instrument. For each sample, 2 μL samples from the top organic layer of in-plate liquid-liquid extraction were injected onto a Thermo Betabasic C4 column (2.1 mm×20 mm, 5 μm particle size). The samples were then eluted using the following conditions; mobile phase: Isopropanol: acetonitrile/10 mM ammonium formate=50/35/15 (v/v/v), flow rate: 0.8 mL/min, temperature: 25° C. Data was acquired in positive mode using a heated electrospray ionization (HESI) interface. The operational parameters for the TSQ Vantage MS/MS instrument were a spray voltage of 3000 V, capillary temperature of 280° C., vaporizer temperature 400° C., sheath gas 45 arbitrary unit, Aux gas 10 arbitrary units, S-lens 165 and collision gas 1.0 mTorr. […] (SRM) chromatograms of ^13C18-triolein (Q1: 920.8>Q3:621.3) and internal standard ^13C21-triolein (Q1: 923.8>Q3:617.3) were collected for 33 sec. The peak area was integrated by Xcalibur Quan software. The ratio between the ^13C18triolein generated in the reaction and spiked in internal standard ^13C21-triolein was used to generate percentage inhibition and IC50 values. Compound percentage inhibition was calculated by the following formula: Inhibition %=1−[(compound response−low control)/(high control−low control)]×100%. Potent compounds were titrated and IC50 were calculated by 4 parameter sigmoidal curve fitting formula.
# DGAT2 activity was determined by measuring the amount of enzymatic product ^13C18-triolein (^13C-1,2,3-Tri(cis-9-octadecenoyl)glycerol) using the membrane prep mentioned above. The assay was carried out in ABgene 384-well assay plates in a final volume of 25 μL at rt. The assay mixture contained the following: assay buffer (100 mM Tris.Cl, pH 7.0, 20 mM MgCl2, 5% ethanol), 25 μM of diolein, 5 μM of ^13C oleoyl-CoA and 8 ng/μL of DGAT2 membrane.
row,SMILES,IC50 [nM]
1,"C[C@]1(NC(=O)c2ccc3c(c2)c(-c2ccc(F)cc2)cn3-c2cccc(OC(F)F)c2)CCS(=O)(=O)C1 [Example 6, (S)-1-(3-(difluoromethoxy)phenyl)-3-(4-fluorophenyl)-N-(3 - methyl-1,1-dioxidotetrahydrothiophen-3-yl)-1H-indole-5-carboxamide]",0.5
2,"CC1(NC(=O)c2cnc3c(c2)c(C(C)(C)O)nn3-c2cc(OCC(F)F)ncc2F)CCS(=O)(=O)CC1 [Example 44, 1-(2-(2,2-difluoroethoxy)-5-fluoropyridin-4-yl)-3-(2-hydroxypropan-2-yl)-N-(4-methyl-1,1-dioxidotetrahydro-2H-thiopyran-4-yl)-1H-pyrazolo[3,4-b]pyridine-5-carboxamide]",2.7
3,"CC1(NC(=O)c2ccc3c(c2)c(C(O)C(F)(F)F)nn3-c2cccc(OC(F)F)c2)CS(=O)(=O)C1 (single isomer, unassigned) [Example 30b, 1-[3-(difluoromethoxy)phenyl]-N-(3-methyl-1,1-dioxo-thietan-3-yl)-3-(2,2,2-trifluoro-1-hydroxy-ethyl)indazole-5-carboxamide]",113
4,CC1(NC(=O)c2ccc3c(c2)c(NS(C)(=O)=O)nn3-c2cccc(OC(F)F)c2)CS(=O)(=O)C1 [Example 51],> 10000
5,"Cn1ccc(-c2nn(-c3cccc(OC(F)F)c3)c3ccc(C(=O)NC4(C)CS(=O)(=O)C4)cc23)n1 [Example 2, 1-(3-(difluoromethoxy)phenyl)-N-(3-methyl-1,1-dioxo-thietan-3-yl)-3-(l-methylpyrazol-3-yl)indazole-5-carboxamide]",18
6,"COCC(C)NC(=O)c1ccc2c(c1)c(-c1ccccc1Cl)cn2-c1ccc(F)cc1 (centres unmarked) [Example 10, 3-(2-chlorophenyl)-1-(4-fluorophenyl)-N-(1-methoxypropan-2-yl)-1H-indole-5-carboxamide]",3510
7,"Cn1nccc1-c1nn(-c2cccc(OC(F)F)c2)c2ccc(C(=O)NC3(C)CS(=O)(=O)C3)cc12 [Example 1, 1-[3-(difluoromethoxy)phenyl]-N-(3-methyl-1,1-dioxo-thietan-3-yl)-3-(2-methylpyrazol-3-yl)indazole-5-carboxamide]",46
8,"CC(O)c1nn(-c2cccc(OC(F)F)c2)c2ccc(C(=O)N[C@@]3(C)CCS(=O)(=O)C3)cc12 (stereo partly drawn) [Example 34, 1-(3-(difluoromethoxy)phenyl)-3-(l-hydroxyethyl)-N-((S)-3-methyl-1,1-dioxidotetrahydrothiophen-3-yl)-1H-indazole-5-carboxamide]",83
9,"C[C@]1(NC(=O)c2ccc3c(c2)c(S(C)(=O)=O)nn3-c2cccc(OC(F)F)c2)CCS(=O)(=O)C1 [Example 53, (S)-1-(3-(difluoromethoxy)phenyl)-N-(3-methyl-1,1-dioxidotetrahydrothiophen-3-yl)-3-(methylsulfonyl)-1H-indazole-5-carboxamide]",543
10,"C[C@]1(NC(=O)c2ccc3c(c2)c(-c2ccc(F)cc2)cn3-c2ccc(F)cc2)CCS(=O)(=O)C1 [Example 7, (S)-1,3-bis(4-fluorophenyl)-N-(3-methyl-1,1-dioxidotetrahydrothiophen-3-yl)-1H-indole-5-carboxamide]",578
11,"CC1(NC(=O)c2cnc3c(c2)c(C(C)(C)O)nn3-c2cc(OC(F)(F)F)ccc2F)CS(=O)(=O)C1 [Example 40, l-(2-fluoro-5-(trifluoromethoxy)phenyl)-3-(2-hydroxypropan-2-yl)-N-(3-methyl-1,1-dioxidothietan-3-yl)-1H-pyrazolo[3,4-b]pyridine-5-carboxamide]",14
12,"COc1ccc(-n2nc(NCCc3ccccc3)c3cc(C(=O)NCCCN(C)C)ccc32)cc1 [Example 52, N-(3-(dimethylamino)propyl)-1-(4-methoxyphenyl)-3-(phenethylamino)-1H-indazole-5-carboxamide]",4320
13,"CCc1nn(-c2cccc(OC(F)F)c2)c2ccc(C(=O)NC3(C)CS(=O)(=O)C3)cc12 [Example 14, l-(3-(difluoromethoxy)phenyl)-3-ethyl-N-(3-methyl-1,1-dioxo-thietan-3-yl)indazole-5-carboxamide]",11
14,"CC(C)(O)c1nn(-c2cccc(OC(F)F)c2)c2ccc(C(=O)N[C@@]3(C)CCS(=O)(=O)C3)cc12 [Example 33, (S)-1-(3-(difluoromethoxy)phenyl)-3-(2-hydroxypropan-2-yl)-N-(3-methyl-1,1-dioxidotetrahydrothiophen-3-yl)-1H-indazole-5-carboxamide]",27
15,"CC1(NC(=O)c2cnc3c(c2)c(C(C)(C)O)nn3-c2cc(OC(F)F)ncc2F)CS(=O)(=O)C1 [Example 46, l-(2-(difluoromethoxy)-5-fluoropyridin-4-yl)-3-(2-hydroxypropan-2-yl)-N-(3-methyl-1,1-dioxidothietan-3-yl)-1H-pyrazolo[3,4-b]pyridine-5-carboxamide]",31
16,"CC(C)(O)Cc1nn(-c2cc(OC(F)F)ccc2F)c2ncc(C(=O)NC3(C)CS(=O)(=O)C3)cc12 [Example 24, l-(5-(difluoromethoxy)-2-fluorophenyl)-3-(2-hydroxy-2-methylpropyl)-N-(3-methyl-1,1-dioxidothietan-3-yl)-1H-pyrazolo[3,4-b]pyridine-5-carboxamide]",6.4

# Further lines, results first:
row,IC50 [nM],SMILES
1,107,"CC1(NC(=O)c2cnc3c(c2)c(C(C)(C)O)nn3-c2cccc(OC(F)(F)F)c2)CS(=O)(=O)C1 [Example 42, 3-(2-hydroxypropan-2-yl)-N-(3-methyl-1,1-dioxidothietan-3-yl)-1-(3-(trifluoromethoxy)phenyl)-1H-pyrazolo[3,4-b]pyridine-5-carboxamide]"
2,25,CC(C)c1nn(-c2cncc(OC(F)F)c2)c2ncc(C(=O)NC3(C)CS(=O)(=O)C3)cc12 [Example 17]
3,5.1,"CC1(NC(=O)c2ccc3c(c2)c(C(O)C2CC2)nn3-c2cccc(OC(F)F)c2)CS(=O)(=O)C1 (single isomer, unassigned) [Example 29a, 3-[cyclopropyl(hydroxy)methyl] - 1-[3-(difluoromethoxy)phenyl]-N-(3-methyl-1,1-dioxo-thietan-3-yl)indazole-5-carboxamide]"
4,15,"CC1(NC(=O)c2cnc3c(c2)c(C2(O)CCC2)nn3-c2cccc(OC(F)F)c2)CS(=O)(=O)C1 [Example 39, l-(3-(difluoromethoxy)phenyl)-3-(l-hydroxycyclobutyl)-N-(3-methyl-1,1-dioxidothietan-3-yl)-lH-pyrazolo[3,4-b]pyridine-5-carboxamide]"
5,70,"CCC(O)c1nn(-c2cccc(OC(F)F)c2)c2ccc(C(=O)NC3(C)CS(=O)(=O)C3)cc12 (single isomer, unassigned) [Example 28b, 1-(3-(difluoromethoxy)phenyl)-3-(1-hydroxypropyl)-N-(3-methyl-1,1-dioxidothietan-3-yl)-1H-indazole-5-carboxamide]"
6,24,"CCC(O)c1nn(-c2cccc(OC(F)F)c2)c2ccc(C(=O)NC3(C)CS(=O)(=O)C3)cc12 (single isomer, unassigned) [Example 28a, 1-(3-(difluoromethoxy)phenyl)-3-(1-hydroxypropyl)-N-(3-methyl-1,1-dioxidothietan-3-yl)-1H-indazole-5-carboxamide]"
7,14,"CC(C)c1nn(-c2cccc(C3CC3)c2)c2ncc(C(=O)NC3(C)CS(=O)(=O)C3)cc12 [Example 16, l-(3-cyclopropylphenyl)-3-isopropyl-N-(3-methyl-1,1-dioxidothietan-3-yl)-1H-pyrazolo[3,4-b]pyridine-5-carboxamide]"
